Experimental data as given in US12082597B2, “Supplemented fish feed” (CAN TECHNOLOGIES, INC., priority 2013, dated 2024).
Like-named read-outs stand apart in the source and are kept apart here.

What was measured:
DT50 in sea water = assay type: physicochemical; conditions: 16° C.; Not GLP/GEP
[1] = Half-life in fish-farm sediment (Skye); assay type: physicochemical; conditions: Not GLP/GEP
Procedure: In common with most plant-derived biocides, the azadirachtin terpenoids have a short half-life in the environment. They hydrolyse in water, and their disappearance is faster the more alkaline the water. For example, at pH 7.0 and 20° C. the half-life of azadirachtin terpenoids is 19.5 days, and at pH 8.0 it is 4.4 days. As seawater is slightly alkaline, (pH 7.5-8.4) any dissolved azadirachtin terpenoids will have largely disappeared within a week. Azadirachtin is rapidly catabolized by the microflora in soil. […] Preliminary studies with some sediment from below cages in Skye (Scotland) and subsequently infused with NeemAzal® in the laboratory have indicated a half-life of 3 weeks for NeemAzal® Technical added to the sediment and incubated at 15° C. Unchanged excreted material will be infinitely diluted in the water and hydrolyzed within days into small fragments without biological activity.

[2] = cited from earlier work
[3] = 20° C.; cited from earlier work

In the case of `C/C=C(\C)C(=O)O[C@H]1C[C@@H](OC(C)=O)[C@@]2(C(=O)OC)CO[C@H]3[C@@H](O)[C@@](C)([C@]45O[C@@]4(C)[C@H]4C[C@@H]5O[C@@H]5OC=C[C@@]54O)[C@H]4[C@]1(CO[C@]4(O)C(=O)OC)[C@@H]32` (relative stereo) [Azadirachtin A, dimethyl [2aR-[2aα,3β,4β(1aR*,2S*,3aS*,6aS*,7S*,7aS*),4aβ,5α,7aS*,8β(E),10β,10aα,10bβ]]-10-(acetyloxy)octahydro-3,5-dihydroxy-4-methyl-8-[(2-methyl-1-oxo-2-butenyl)oxy]-4-(3a,6a,7,7a)-tetrahydro-6a-hydroxy-7a-methyl-2,7-methanofuro[2,3-b]oxireno[e]oxepin-1a(2H)-yl)-1H,7H-naphtho-[1,8-bc:4,4a-c′]difuran-5,10a(8H)-dicarboxylate], the “DT50 in sea water” value (DT50 in sea water) is listed as 8 days, the “DT50 in fish-farm sediment (Skye)” value [1] is listed as 3 weeks and the “DT50 in fresh water” value ([2]; pH 4.0) is listed as 50 days. The “DT50 in fresh water” value ([2]; pH 7.0) was 19 days, the “DT50 in fresh water” value ([2]; pH 8.0) was 4 days and the “DT50 in field soil” value [3] was 4 to 5 days.
